The values that follow come from ChEMBL document CHEMBL1201862, “PubChem BioAssay data set” (2004).

Molecules are shown by their SMILES. Active and inactive are the calls of the source.

The target in one experiment is T1, Bcl-2-related protein A1 (Mus musculus, UniProt Q07440).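 Further: confirmatory dose–response counterscreen on Bfl-1, used to check hits from a UBC13 polyubiquitin inhibitor campaign.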
T1 sequence (Q07440 whole entry): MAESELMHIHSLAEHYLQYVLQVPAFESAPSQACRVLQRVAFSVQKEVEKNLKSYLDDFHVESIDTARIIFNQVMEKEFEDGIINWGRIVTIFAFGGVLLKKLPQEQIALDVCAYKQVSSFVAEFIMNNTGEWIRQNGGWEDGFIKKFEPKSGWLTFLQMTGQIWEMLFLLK
The format is functional.

The target of experiment [1] is T2, Ubiquitin-conjugating enzyme E2 N (Homo sapiens, UniProt P61088).
T2 sequence (P61088 whole entry): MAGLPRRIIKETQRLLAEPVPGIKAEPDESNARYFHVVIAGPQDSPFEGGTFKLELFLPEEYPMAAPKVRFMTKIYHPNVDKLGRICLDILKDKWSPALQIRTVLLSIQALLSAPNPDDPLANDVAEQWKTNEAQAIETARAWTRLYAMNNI
The format is functional.

The target in experiment [2] is T2, Ubiquitin-conjugating enzyme E2 N. The format is functional. The source holds these as a separate data set.
For experiment [3], the target named is T3, DNA repair protein RAD52 homolog (Homo sapiens, UniProt P43351).
T3 sequence (P43351 whole entry): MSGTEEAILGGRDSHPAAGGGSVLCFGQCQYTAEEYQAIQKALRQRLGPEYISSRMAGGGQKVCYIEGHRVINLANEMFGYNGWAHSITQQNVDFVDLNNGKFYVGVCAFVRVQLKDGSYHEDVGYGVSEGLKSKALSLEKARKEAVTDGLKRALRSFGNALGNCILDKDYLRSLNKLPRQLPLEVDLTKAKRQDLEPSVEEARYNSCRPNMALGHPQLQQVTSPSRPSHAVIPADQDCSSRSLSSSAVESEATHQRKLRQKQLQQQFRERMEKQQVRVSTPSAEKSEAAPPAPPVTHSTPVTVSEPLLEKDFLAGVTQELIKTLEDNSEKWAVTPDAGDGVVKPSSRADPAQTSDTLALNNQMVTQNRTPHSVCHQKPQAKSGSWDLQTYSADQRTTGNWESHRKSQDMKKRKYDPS
The class given is functional, biochemical.

The target of experiment [4] is Lysine-specific demethylase 4C (Homo sapiens, UniProt Q9H3R0). The experiment can be described thus: GASC-1 (JMJD2C) histone demethylase inhibitors, dose response, biochemical, DELFIA europium, cherry-picked samples (AID 488835). The class given is functional.
For experiment [5], the target named is T4, Tyrosine-protein phosphatase non-receptor type 7 (Homo sapiens, UniProt P35236).
T4 sequence (P35236 whole entry): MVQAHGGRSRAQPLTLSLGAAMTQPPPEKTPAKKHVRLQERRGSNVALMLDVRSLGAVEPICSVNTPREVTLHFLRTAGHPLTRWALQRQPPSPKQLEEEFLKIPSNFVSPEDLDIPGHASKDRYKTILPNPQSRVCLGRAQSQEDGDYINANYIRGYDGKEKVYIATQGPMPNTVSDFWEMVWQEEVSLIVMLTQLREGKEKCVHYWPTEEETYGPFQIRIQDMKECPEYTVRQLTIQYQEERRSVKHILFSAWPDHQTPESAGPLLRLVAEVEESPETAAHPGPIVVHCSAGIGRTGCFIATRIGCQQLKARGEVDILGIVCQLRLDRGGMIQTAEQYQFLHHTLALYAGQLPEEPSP
The class given is functional.

Experiment [6] addresses T5, Tyrosine-protein phosphatase non-receptor type 22 (Homo sapiens, UniProt Q9Y2R2).
T5 sequence (Q9Y2R2 whole entry): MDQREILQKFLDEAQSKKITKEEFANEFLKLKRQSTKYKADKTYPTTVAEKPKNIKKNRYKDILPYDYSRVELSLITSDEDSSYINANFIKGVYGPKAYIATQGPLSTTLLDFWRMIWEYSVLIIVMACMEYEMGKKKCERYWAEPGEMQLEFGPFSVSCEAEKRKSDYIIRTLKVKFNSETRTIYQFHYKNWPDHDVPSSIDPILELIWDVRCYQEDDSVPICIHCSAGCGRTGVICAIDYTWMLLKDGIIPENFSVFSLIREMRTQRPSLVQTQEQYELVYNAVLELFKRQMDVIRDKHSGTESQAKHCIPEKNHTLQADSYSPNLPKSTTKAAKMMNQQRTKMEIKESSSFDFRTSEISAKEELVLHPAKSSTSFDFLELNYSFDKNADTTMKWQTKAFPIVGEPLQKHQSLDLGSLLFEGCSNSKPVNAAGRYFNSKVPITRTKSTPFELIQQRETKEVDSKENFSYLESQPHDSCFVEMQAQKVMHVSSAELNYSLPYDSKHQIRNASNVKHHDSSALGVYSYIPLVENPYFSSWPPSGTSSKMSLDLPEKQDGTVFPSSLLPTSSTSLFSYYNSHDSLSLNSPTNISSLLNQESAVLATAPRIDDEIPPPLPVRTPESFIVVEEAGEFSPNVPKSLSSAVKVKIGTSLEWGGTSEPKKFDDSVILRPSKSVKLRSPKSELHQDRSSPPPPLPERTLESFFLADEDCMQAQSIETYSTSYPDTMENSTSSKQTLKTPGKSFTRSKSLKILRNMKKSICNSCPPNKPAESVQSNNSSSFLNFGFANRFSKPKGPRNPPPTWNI
The class given is functional.

Experiment [7] concerns the target T5, Tyrosine-protein phosphatase non-receptor type 22. The format is functional. This is another data set of the same source.
A further experiment deals with SUMO E1/E2 (Homo sapiens, UniProt P63279+Q9UBE0+Q9UBT2). Put plainly: SAR analysis of SUMOylation using HTRF in an in-Vitro dose response assay. [Related pubchem assays (depositor defined):AID2006, AID2011, AID2018, AID2069, AID2658]. The format is functional. Background: TR-FRET usually uses a lanthanide donor and a delayed reading to cut background.
Experiment [8] deals with T6, Runt-related transcription factor 1/Core-binding factor subunit beta (Homo sapiens, UniProt Q01196+Q13951). Put plainly: inhibitors of RUNX1 Runt–CBFb-SMMHC binding, primary screen, biochemical, FRET, Cerulean-Runt, Venus-CBFb-SMMHC, uHTS (AID 1434).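 Further: partner is the CBFb-SMMHC leukemia fusion protein rather than wild-type CBFb.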 The format is protein assay.
Experiment [9] has as its target T6, Runt-related transcription factor 1/Core-binding factor subunit beta. The experiment can be described thus: inhibitors of RUNX1 Runt–CBFb-SMMHC binding, biochemical, TR-FRET (AID 1438). The format is protein assay.
The target of experiment [10] is T7, Endoribonuclease toxin MazF (Escherichia coli K-12, UniProt P0AE70).
T7 sequence (P0AE70 whole entry): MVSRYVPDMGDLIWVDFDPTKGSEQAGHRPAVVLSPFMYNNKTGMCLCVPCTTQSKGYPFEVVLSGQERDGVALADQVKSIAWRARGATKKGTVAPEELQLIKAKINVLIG
The experiment can be described thus: MazF toxin RNase activators, dose response, biochemical, fluorescence, single-stranded RNA substrate, uHTS hits (AID 588481). The format is functional.

Experiment [11] addresses T7, Endoribonuclease toxin MazF. Put plainly: fluorescent RNA oligo signal without MazF, dose response, counter-screen for MazEF activator project, biochemical, fluorescence, single-stranded RNase substrate (AID 588502). The format is functional.
Experiment [12] concerns the target T8, E3 ubiquitin-protein ligase XIAP (Homo sapiens, UniProt P98170). Put plainly: Counter Screen using XIAP-Bir3 for Chemical Antagonists of Bir1/2 domains of IAP-family anti-apoptotic proteins. [Related pubchem assays (depositor defined):AID1018, AID1449, AID1514, AID1638, AID1749, AID1750, AID488957, AID488963]. In general terms: A counterscreen serves to expose hits that act by an unwanted route or on another target.

Experiment [13] has as its target T8, E3 ubiquitin-protein ligase XIAP. Put plainly: XIAP antagonists, biochemical, IAP family, fluorescence polarization (AID 1018). The format is functional. For orientation: In fluorescence polarisation assays a small probe gives low polarisation when free and higher when bound to something large.
Experiment [14] has as its target T9, Type-1 angiotensin II receptor (Homo sapiens, UniProt P30556).
T9 sequence (P30556 whole entry): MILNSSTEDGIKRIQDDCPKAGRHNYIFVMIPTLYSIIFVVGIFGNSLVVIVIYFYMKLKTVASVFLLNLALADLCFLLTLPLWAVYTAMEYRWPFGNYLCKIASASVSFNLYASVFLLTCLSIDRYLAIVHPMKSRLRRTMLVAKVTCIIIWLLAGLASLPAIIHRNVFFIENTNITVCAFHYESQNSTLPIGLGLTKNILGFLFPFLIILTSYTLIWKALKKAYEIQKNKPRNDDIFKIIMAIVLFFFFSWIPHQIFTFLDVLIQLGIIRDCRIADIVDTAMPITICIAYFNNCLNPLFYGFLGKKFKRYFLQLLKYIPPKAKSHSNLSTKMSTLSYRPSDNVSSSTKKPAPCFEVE
Put plainly: AT1 receptor agonists, dose response, selectivity assay for APJ receptor agonist project, cell-based, uHTS hits (AID 488865).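 Further: beta-arrestin recruitment to AT1 measured by enzyme fragment complementation luminescence.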 The format is functional.

In experiment [15] the test system is Streptococcus sp. 'group A'. The experiment can be described thus: growth inhibition of control SK(-) GAS strain, dose response, counter-screen for streptokinase expression inhibitor project, luminescence, kanamycin, BacTiterGlo, confirmation (AID 1900). The format is functional, organism-based.
For another experiment, the system named is Streptococcus. Put plainly: Group A Streptococcus viability loss, dose response, counter-screen for streptokinase expression inhibitor project, luminescence, BacTiterGlo (AID 1915).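 Further: potency for reduction of bacterial viability or growth.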 The class given is functional, organism-based.
For a further experiment, the target named is Trypsin (Sus scrofa, UniProt P00761). The experiment can be described thus: porcine trypsin inhibitors, dose response, selectivity assay for Rce1 protease inhibitor project, biochemical, quenched peptide fluorescence, cherry-pick (AID 488789).
A further experiment addresses CAAX prenyl protease 1 (Saccharomyces cerevisiae S288c, UniProt P47154). The experiment can be described thus: Ste24 protease inhibitors, dose response, biochemical, S. cerevisiae, plate reader, cherry-pick (AID 488815).

T6 sequence (Q01196 whole entry, the tested form may be a part): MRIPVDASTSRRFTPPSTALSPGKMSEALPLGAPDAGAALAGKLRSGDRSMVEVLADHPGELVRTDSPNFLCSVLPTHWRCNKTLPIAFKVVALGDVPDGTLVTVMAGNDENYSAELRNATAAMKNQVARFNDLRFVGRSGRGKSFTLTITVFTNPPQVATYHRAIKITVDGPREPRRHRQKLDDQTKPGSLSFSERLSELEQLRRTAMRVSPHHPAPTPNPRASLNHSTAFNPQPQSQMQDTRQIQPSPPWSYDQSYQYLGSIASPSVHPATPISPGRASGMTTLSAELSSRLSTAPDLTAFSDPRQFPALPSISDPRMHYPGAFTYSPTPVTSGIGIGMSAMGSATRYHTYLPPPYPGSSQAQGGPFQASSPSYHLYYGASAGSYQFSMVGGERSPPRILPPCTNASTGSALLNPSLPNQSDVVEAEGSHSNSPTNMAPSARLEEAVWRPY
T6 sequence (Q13951 whole entry, the tested form may be a part): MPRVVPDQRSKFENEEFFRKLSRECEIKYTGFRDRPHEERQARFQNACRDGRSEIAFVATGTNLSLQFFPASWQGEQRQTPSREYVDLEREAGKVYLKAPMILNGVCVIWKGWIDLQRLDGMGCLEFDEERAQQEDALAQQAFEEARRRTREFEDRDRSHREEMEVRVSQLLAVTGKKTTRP
T8 sequence (P98170 whole entry): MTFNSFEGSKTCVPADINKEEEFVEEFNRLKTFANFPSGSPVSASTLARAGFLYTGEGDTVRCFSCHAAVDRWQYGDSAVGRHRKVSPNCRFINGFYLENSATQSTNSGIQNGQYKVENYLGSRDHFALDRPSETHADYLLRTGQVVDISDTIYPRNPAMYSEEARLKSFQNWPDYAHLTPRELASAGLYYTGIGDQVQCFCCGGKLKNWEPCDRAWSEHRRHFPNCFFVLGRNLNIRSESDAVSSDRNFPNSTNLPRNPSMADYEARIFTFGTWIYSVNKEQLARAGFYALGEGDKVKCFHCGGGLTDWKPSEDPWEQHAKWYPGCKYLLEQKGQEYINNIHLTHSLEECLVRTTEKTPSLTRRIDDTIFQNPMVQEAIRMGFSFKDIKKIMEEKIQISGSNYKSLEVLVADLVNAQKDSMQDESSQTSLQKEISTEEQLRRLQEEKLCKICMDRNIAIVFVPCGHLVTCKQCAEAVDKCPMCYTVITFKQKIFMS
Lysine-specific demethylase 4C, sequence (Q9H3R0 whole entry): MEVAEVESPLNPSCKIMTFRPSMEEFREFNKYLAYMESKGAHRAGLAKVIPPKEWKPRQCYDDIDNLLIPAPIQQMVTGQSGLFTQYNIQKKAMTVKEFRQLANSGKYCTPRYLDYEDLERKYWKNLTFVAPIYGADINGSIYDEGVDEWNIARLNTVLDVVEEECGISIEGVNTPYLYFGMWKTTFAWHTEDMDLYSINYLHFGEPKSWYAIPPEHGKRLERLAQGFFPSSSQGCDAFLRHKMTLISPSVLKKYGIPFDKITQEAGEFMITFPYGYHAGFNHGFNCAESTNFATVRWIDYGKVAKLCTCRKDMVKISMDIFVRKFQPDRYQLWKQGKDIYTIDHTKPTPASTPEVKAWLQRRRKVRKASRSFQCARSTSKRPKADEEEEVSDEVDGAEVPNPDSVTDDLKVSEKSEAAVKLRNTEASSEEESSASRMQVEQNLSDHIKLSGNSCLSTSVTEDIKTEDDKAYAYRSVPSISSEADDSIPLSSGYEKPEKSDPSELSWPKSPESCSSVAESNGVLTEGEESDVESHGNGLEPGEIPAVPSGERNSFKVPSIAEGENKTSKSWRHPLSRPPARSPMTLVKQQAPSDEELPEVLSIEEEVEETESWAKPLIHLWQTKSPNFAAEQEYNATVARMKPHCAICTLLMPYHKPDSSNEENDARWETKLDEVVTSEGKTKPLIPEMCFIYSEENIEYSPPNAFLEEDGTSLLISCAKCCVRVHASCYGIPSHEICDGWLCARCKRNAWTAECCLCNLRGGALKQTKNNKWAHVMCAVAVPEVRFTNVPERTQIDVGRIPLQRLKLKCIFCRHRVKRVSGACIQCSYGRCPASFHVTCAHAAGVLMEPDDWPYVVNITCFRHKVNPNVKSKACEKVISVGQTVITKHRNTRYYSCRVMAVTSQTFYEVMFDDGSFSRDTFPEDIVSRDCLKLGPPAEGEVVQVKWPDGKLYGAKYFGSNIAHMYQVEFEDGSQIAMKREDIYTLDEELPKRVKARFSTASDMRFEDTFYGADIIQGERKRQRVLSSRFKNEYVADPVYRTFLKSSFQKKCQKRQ
Trypsin, sequence (P00761 whole entry): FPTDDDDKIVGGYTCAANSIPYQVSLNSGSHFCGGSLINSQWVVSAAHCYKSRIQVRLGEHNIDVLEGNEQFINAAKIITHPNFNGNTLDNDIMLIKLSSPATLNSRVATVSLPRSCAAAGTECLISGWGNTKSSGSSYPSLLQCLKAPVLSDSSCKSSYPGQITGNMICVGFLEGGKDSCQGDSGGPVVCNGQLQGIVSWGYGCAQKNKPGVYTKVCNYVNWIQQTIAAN
SUMO E1/E2, sequence (Q9UBE0 whole entry, the tested form may be a part): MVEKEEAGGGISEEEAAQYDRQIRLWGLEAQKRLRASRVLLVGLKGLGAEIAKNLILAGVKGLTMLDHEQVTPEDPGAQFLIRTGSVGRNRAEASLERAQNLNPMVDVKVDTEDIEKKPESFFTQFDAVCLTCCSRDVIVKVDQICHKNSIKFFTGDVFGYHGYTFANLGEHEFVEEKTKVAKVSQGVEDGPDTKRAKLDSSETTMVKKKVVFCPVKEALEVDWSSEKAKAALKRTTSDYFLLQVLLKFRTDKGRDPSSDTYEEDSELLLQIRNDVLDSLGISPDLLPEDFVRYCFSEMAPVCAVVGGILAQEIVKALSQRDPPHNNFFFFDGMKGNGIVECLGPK
SUMO E1/E2, sequence (Q9UBT2 whole entry, the tested form may be a part): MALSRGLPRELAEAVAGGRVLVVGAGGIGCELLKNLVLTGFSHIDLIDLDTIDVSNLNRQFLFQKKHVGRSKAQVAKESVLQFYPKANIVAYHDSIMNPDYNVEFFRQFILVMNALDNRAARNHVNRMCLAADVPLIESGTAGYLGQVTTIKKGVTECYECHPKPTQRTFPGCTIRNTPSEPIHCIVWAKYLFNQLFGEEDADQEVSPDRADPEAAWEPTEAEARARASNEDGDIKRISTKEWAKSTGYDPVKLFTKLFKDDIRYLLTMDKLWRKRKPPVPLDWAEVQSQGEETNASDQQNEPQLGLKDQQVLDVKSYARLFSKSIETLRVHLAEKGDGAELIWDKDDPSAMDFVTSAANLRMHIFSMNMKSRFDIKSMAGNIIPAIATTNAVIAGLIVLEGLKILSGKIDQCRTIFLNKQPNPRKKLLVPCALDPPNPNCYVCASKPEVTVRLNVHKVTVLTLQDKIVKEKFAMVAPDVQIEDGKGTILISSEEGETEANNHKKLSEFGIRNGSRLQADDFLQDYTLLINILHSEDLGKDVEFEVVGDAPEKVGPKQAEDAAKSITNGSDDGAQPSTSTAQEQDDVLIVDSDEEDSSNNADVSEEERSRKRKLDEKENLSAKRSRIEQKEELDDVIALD
SUMO E1/E2, sequence (P63279 whole entry, the tested form may be a part): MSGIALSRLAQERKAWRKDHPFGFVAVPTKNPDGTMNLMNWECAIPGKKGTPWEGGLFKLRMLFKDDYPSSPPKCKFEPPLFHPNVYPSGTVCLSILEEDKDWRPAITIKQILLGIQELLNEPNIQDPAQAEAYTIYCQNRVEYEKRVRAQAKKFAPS
CAAX prenyl protease 1, sequence (P47154 whole entry): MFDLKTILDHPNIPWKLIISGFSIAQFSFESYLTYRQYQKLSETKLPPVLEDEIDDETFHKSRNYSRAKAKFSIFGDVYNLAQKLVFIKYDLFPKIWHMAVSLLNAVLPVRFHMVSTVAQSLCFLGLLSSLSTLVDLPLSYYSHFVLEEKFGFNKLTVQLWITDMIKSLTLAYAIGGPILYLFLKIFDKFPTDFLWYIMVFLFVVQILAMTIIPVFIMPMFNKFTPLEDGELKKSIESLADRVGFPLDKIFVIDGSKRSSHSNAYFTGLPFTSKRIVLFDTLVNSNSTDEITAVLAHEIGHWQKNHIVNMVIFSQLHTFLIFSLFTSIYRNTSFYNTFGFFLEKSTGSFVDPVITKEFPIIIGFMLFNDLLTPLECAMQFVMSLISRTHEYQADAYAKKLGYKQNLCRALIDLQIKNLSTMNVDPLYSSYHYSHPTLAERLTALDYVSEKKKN

Consider `CCN(CC)CCNC(=O)c1ccc(NC(=O)c2cc(-c3ccncc3)nc3ccccc23)cc1`, for which the IC50 on Bcl-2-related protein A1 is > 20 µM (inactive); in experiment [1] it was 17 µM (active); in experiment [2] it was > 20 µM (inactive). The AC50 in experiment [3] is 20.4 µM (active).

As for `C=CCn1c(C)c(C=C2C(=O)NC(=O)NC2=O)c2ccccc21`, in experiment [4], the AC50 is 2.9 µM (active).

As to `Cc1noc(NS(=O)(=O)c2ccc(NC(=O)c3nn(-c4ccccc4)ccc3=O)cc2)c1C`, the IC50 in experiment [5], in [6] and in [7] was > 79.4 µM (inactive) throughout.

With `COc1ccc(CNC(=O)COC(=O)c2cc(-c3cccs3)nc3ccccc23)cc1`, the IC50 at SUMO E1/E2 was 43.3 µM (active).

As for `CCOC(=O)c1cc2c(=O)n3cccc(C)c3nc2n(Cc2ccco2)/c1=N/C(=O)c1ccccc1`, the IC50 in experiment [8] was 13.1 µM (active); in [9] it was > 100 µM (inactive).

Consider `CCc1ccc(C2C3=C(O)CC(C)(C)CC3=Nc3c2c(O)nc2nc(C)nn32)cc1` (stereo not drawn), for which the IC50 in [8] is 3.68 µM (active); in [9], 31.2 µM (active).

As to `CC1(C)OC(c2ccccc2)=C/C(=C/C=C2C(=O)NC(=S)NC2=O)O1`, the AC50 in experiment [4] was 11.6 µM (active). In addition, the results for the EC50 in experiment [10] and in experiment [11] were 11 µM (active) and 13.9 µM (active), respectively.

Consider `Cc1ccsc1/C=C(\C#N)C(=O)NCc1ccco1`, for which the IC50 is > 100 µM (inactive) in experiment [12] and > 100 µM (not active) in experiment [13].

For the compound `CCOc1cccc2sc(N(CCCN(C)C)C(=O)c3ccc(S(=O)(=O)N(C)Cc4ccccc4)cc3)nc12`, the IC50 at Bcl-2-related protein A1 was > 20 µM (inactive); in experiment [1], 8.54 µM (active); in experiment [2], 8.12 µM (active). For the same compound, the EC50 in experiment [14] is > 100 µM (inactive).

For the compound `CC1COc2c(N3CCN(C)CC3)c(F)cc3c(=O)c(C(=O)O)cn1c23` (stereo not drawn) [OFLOXACIN], the EC50 is 3.03 µM (active) in experiment [15] and 4.11 µM (active) with Streptococcus. The AC50 on Trypsin was 9.26 µM (active); on CAAX prenyl protease 1, 1.95 µM (active).

On to `Cc1ccc2c(c1)C(c1ccccc1)N(C(=O)c1ccc(Br)o1)CC(=O)N2` (stereo not drawn), for which the IC50 in [12] is > 100 µM (inactive); in [13], > 100 µM (not active).

One may read the IC50 as the point on the concentration scale where inhibition reaches its midpoint. The AC50 is the concentration giving half of the maximal activity seen. A word on the EC50: it is the concentration at which the effect is half-maximal.
